Test results taken from US20080076183A1, “Polysaccharide-peptide conjugates for use as thrombin substrates” (Dade Behring Marburg GmbH, priority 2006, published 2008).
Non-standard residues stand in square brackets, D forms with d. Residues, ends and D or L forms follow the SMILES beside them. *: point of attachment. pNA = O=[N+]([O-])c1ccc(N*)cc1; βAla = NCCC(=O)O

Key:
[1] = molecular target: T1, thrombin (Homo sapiens, UniProt P00734); assay: Thrombin generation test / determination of the endogenous thrombin potential in defibrinated platelet-poor plasma; assay type: biochemical; conditions: for course of substrate conversion curve after termination of thrombin formation and inhibition: extinction at 405 nm; for reaction kinetics / substrate consumption in a thrombin generation test: compared with H-β-Ala-Gly-Arg-pNA and dextran-β-Ala-Gly-Arg-pNA
Protocol: The thrombin generation was started by addition of 30 μl of Innovin® (reagent comprising recombinant human tissue factor and a mixture of synthetic phospholipids; Dade Behring Marburg GmbH, Germany) and 15 μl of CaCl2 [250 mM]. Measurement was started simultaneously. The change in extinction was monitored for at least 20 minutes in a Behring coagulation system BCS® system (Dade Behring Marburg GmbH, Marburg, Germany) at a wavelength of λ=405 nm (see FIG. 2).
For comparison purposes, the determination of the endogenous thrombin potential was carried out in parallel using the uncoupled substrate H-β-Ala-Gly-Arg-pNA. The substrate solution used for this contained 1 mM H-β-Ala-Gly-Arg-pNA (see FIG. 1).

[2] = molecular target: T1, thrombin; assay: Kinetic properties of thrombin substrates (Km, Vmax, Kcat, Kcat/Km)

Molecule	course of substrate conversion curve after termination of thrombin formation and inhibition ([1]; plasma sample)	reaction kinetics / substrate consumption in a thrombin generation test [1]	also measured
N=C(N)NCCC[C@H](NC(=O)CNC(=O)CCN)C(=O)Nc1ccc([N+](=O)[O-])cc1 [H-β-Ala-Gly-Arg-pNA 2AcOH] (H-[βAla]-Gly-Arg-pNA)	changes to a uniform, steady and linear increase, instead of reaching a plateau phase	–	cleavage by α2-macroglobulin-bound thrombin ([1]; plasma sample): cleavage of the small molecular weight peptide substrate by α2-macroglobulin-bound thrombin; Km ([2]; Michaelis constant, substrate affinity to thrombin): 2200 µM; Vmax ([2]; maximum reaction rate): 16 U; Kcat ([2]; turnover number): 17.4 s⁻¹
Dextran-D-CHG-Ala-Arg-pNA	–	substrate consumption rapidly occurs	–
Dextran-D-CHG-Gly-Arg-pNA	–	substrate consumption rapidly occurs	–
Dextran-β-Ala-Gly-Arg-pNA	reaches a plateau phase	–	–
